In this test the test system is HBV. Nature of the test: HBV-DNA Antiviral Assay Using HepG2.2.15 Cells (extracellular HBV DNA by qPCR). Type of test: cell-based, hepatitis B virus (HBV). The settings on record: HBV DNA inhibition, HepG2.2.15 cells, extracellular HBV DNA by qPCR, read-out: EC50. In a few lines: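 HepG2.2.15 cells were treated on day 1 with 8 concentrations (4-fold dilutions, duplicate; 0.5% DMSO), with compound-containing medium refreshed on day 4, at 37 °C. On day 7, supernatant HBV DNA was measured by qPCR against a plasmid standard curve, with inhibition normalised between DMSO and ETV controls. EC50/EC90 and CC50 (CellTiter-Glo ATP) came from variable-slope fits.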
For orientation: Quantitative PCR measures a nucleic acid by following its amplification.

The structures appear in SMILES notation. Where two headings read alike, the source gives them in different places.

For orientation: EC50 means the concentration at which the effect is half-maximal. On to `CC#CC1(NC(=O)C(=O)c2c(C)c(C(=O)Nc3ccc(F)c(C#N)c3)n(C)c2C)COC1` [Compound 50, N-(3-cyano-4-fluoro-phenyl)-1,3,5-trimethyl-4-[2-oxo-2-[(3-prop-1-ynyloxetan-3-yl)amino]acetyl]pyrrole-2-carboxamide], for which the EC50 (Hepatitis B virus) is below 1 nM.

Regarding `Cc1c(C(=O)C(=O)NC(C)(C)c2ccc(F)cn2)c(C)n(C)c1C(=O)Nc1ccc(F)c(C(F)(F)F)c1` [Compound 147, 4-[2-[[l-(5-fluoro-2-pyridyl)-1-methyl-ethyl]amino]-2-oxo-acetyl]-N-[4-fluoro-3-(trifluoromethyl)phenyl]-1,3,5-trimethyl-pyrrole-2-carboxamide], the EC50 lay in the range of 1 to 10 nM.

With `C#C[C@H](NC(=O)C(=O)c1c(C)c(C(=O)Nc2ccc(F)c(C#N)c2)n(C)c1C)C1COC1` [Compound 57], the EC50 was below 1 nM.

Consider `Cc1c(C(=O)C(=O)NC2(c3cn[nH]c3)COC2)c(C)n(C)c1C(=O)Nc1ccc(F)c(C#N)c1` [Compound 151, N-(3-cyano-4-fluoro-phenyl)-1,3,5-trimethyl-4-[2-oxo-2-[[3-(1H-pyrazol-4-yl)oxetan-3-yl]amino]acetyl]pyrrole-2-carboxamide], for which the EC50 (Hepatitis B virus) is 1 to 10 nM.

Regarding `C#CC1(NC(=O)C(=O)c2c(C)c(C(=O)Nc3ccc(F)c(C(F)(F)F)c3)n(C)c2C)CC(O)C1` (centres unmarked) [Compound 49, 4-[2-[(1-ethynyl-3-hydroxy-cyclobutyl)amino]-2-oxo-acetyl]-N-[4-fluoro-3-(trifluoromethyl)phenyl]-1,3,5-trimethyl-pyrrole-2-carboxamide], where the note is “Hepatitis B virus”, the EC50 was below 1 nM.

With `C#CC1(NC(=O)C(=O)c2c(C)c(C(=O)Nc3ccc(F)c(C#N)c3)n(C)c2C)CCC1` [Compound 15, N-(3-cyano-4-fluoro-phenyl)-4-[2-[(1-ethynylcyclobutyl)amino]-2-oxo-acetyl]-1,3,5-trimethyl-pyrrole-2-carboxamide], where the note is “Hepatitis B virus”, the EC50 is below 1 nM.

As to `C#C[C@H](CO)NC(=O)C(=O)c1c(C)c(C(=O)Nc2ccc(F)c(C#N)c2)n(C)c1C` (single isomer, unassigned) [Compound 31b], the EC50 (Hepatitis B virus) was in the range of 1 to 10 nM.

For the compound `C#CCNC(=O)C(=O)c1c(F)c(C(=O)Nc2ccc(F)c(C#N)c2)n(C)c1Br` [Compound 20, 5-bromo-N-(3-cyano-4-fluoro-phenyl)-3-fluoro-1-methyl-4-[2-oxo-2-(prop-2-ynylamino)acetyl]pyrrole-2-carboxamide], the EC50 (Hepatitis B virus) fell in the range of 10 to 100 nM.

For `Cc1c(C(=O)C(=O)NC(C)(C)c2ncc[nH]2)c(C)n(C)c1C(=O)Nc1ccc(F)c(C(F)(F)F)c1` [Compound 132, N-[4-fluoro-3-(trifluoromethyl)phenyl]-4-[2-[[1-(1H-imidazol-2-yl)-1-methyl-ethyl]amino]-2-oxo-acetyl]-1,3,5-trimethyl-pyrrole-2-carboxamide], where the note is “Hepatitis B virus”, the EC50 fell in the range of 1 to 10 nM.

As to `C#CC(C)(C)NC(=O)C(=O)c1c(C)c(C(=O)Nc2ccc(F)c(C(F)(F)F)c2)n(C)c1C` [Compound 35, 4-[2-(1,1-dimethylprop-2-ynylamino)-2-oxo-acetyl]-N-[4-fluoro-3-(trifluoromethyl)phenyl]-1,3,5-trimethyl-pyrrole-2-carboxamide], the EC50 (Hepatitis B virus) is below 1 nM.

As for `C=CCNC(=O)C(=O)c1c(C)c(C(=O)Nc2ccc(F)c(C(F)(F)F)c2)n(C)c1C` [Compound 2, 4-[2-(allylamino)-2-oxo-acetyl]-N-[4-fluoro-3-(trifluoromethyl)phenyl]-1,3,5-trimethyl-pyrrole-2-carboxamide], under “Hepatitis B virus”, the EC50 lay within 1 to 10 nM.

For the compound `C=CCNC(=O)C(=O)c1cn(C)c(C(=O)Nc2ccc(F)c(C#N)c2)c1F` [Compound 7, 4-[2-(allylamino)-2-oxo-acetyl]-N-(3-cyano-4-fluoro-phenyl)-3-fluoro-1-methyl-pyrrole-2-carboxamide], under “Hepatitis B virus”, the half-maximal effective concentration (EC50) fell in the range of 100 to 1000 nM.

`Cc1c(C(=O)C(=O)NC(C)(C)c2cscn2)c(C)n(C)c1C(=O)Nc1ccc(F)c(C(F)(F)F)c1` [Compound 141, N-[4-fluoro-3-(trifluoromethyl)phenyl]-1,3,5-trimethyl-4-[2-[(1-methyl-1-thiazol-4-yl-ethyl)amino]-2-oxo-acetyl]pyrrole-2-carboxamide]: the half-maximal effective concentration (EC50) (Hepatitis B virus) was in the range of 1 to 10 nM.

On to `Cc1c(C(=O)C(=O)NC(C)(C)c2ccnn2C)c(C)n(C)c1C(=O)Nc1ccc(F)c(C#N)c1` [Compound 137, N-(3-cyano-4-fluoro-phenyl)-1,3,5-trimethyl-4-[2-[[1-methyl-1-(2-methylpyrazol-3-yl)ethyl]amino]-2-oxo-acetyl]pyrrole-2-carboxamide], for which the EC50 (Hepatitis B virus) lay in the range of 1 to 10 nM.

Take `C=C[C@](C)(NC(=O)C(=O)c1c(C)c(C(=O)Nc2ccc(F)c(C#N)c2)n(C)c1C)C(F)(F)F` [Compound 95b, N-(3-cyano-4-fluoro-phenyl)-1,3,5-trimethyl-4-[2-oxo-2-[[(1S)-1-methyl-1-(trifluoromethyl)allyl]amino]acetyl]pyrrole-2-carboxamide]: for the setting “Hepatitis B virus”, the concentration for a half-maximal effect (EC50) was in the range of 1 to 10 nM.

`C#CC(CC)(CC)NC(=O)C(=O)c1c(C)c(C(=O)Nc2ccc(F)c(F)c2)n(C)c1C` [Compound 89, 4-[2-(1,1-diethylprop-2-ynylamino)-2-oxo-acetyl]-N-(3,4-difluorophenyl)-1,3,5-trimethyl-pyrrole-2-carboxamide]: the EC50 (Hepatitis B virus) was 1 to 10 nM.

Take `Cc1c(C(=O)C(=O)NC2(c3cn(C4CC4)nn3)CC(F)(F)C2)c(C)n(C)c1C(=O)Nc1ccc(F)c(C(F)(F)F)c1` [Compound 146, 4-[2-[[1-(1-cyclopropyltriazol-4-yl)-3,3-difluoro-cyclobutyl]amino]-2-oxo-acetyl]-N-[4-fluoro-3-(trifluoromethyl)phenyl]-1,3,5-trimethyl-pyrrole-2-carboxamide]: the EC50 fell in the range of 1 to 10 nM.

Consider `C#C[C@@H](NC(=O)C(=O)c1c(C)c(C(=O)Nc2ccc(F)c(C(F)(F)F)c2)n(C)c1C)C1CC1` [Compound 38b, N-[4-fluoro-3-(trifluoromethyl)phenyl]-1,3,5-trimethyl-4-[2-oxo-2-[[(1S)-1-cyclopropylprop-2-ynyl]amino]acetyl]pyrrole-2-carboxamide], for which the EC50 (Hepatitis B virus) was below 1 nM.

As for `C#CCNC(=O)C(=O)c1c(C)c(C(=O)Nc2ccc(F)c(C(F)(F)F)c2)n(C)c1C` [Compound 1, N-[4-fluoro-3-(trifluoromethyl)phenyl]-1,3,5-trimethyl-4-[2-oxo-2-(prop-2-ynylamino)acetyl]pyrrole-2-carboxamide], the EC50 (Hepatitis B virus) fell in the range of 1 to 10 nM.

On to `C#CC1(NC(=O)C(=O)c2c(C)c(C(=O)Nc3ccnc(F)c3Br)n(C)c2C)CC(F)(F)C1` [Compound 68, N-(3-bromo-2-fluoro-4-pyridyl)-4-[2-[(1-ethynyl-3,3-difluoro-cyclobutyl)amino]-2-oxo-acetyl]-1,3,5-trimethyl-pyrrole-2-carboxamide], for which, where the note is “Hepatitis B virus”, the EC50 is below 1 nM.

Regarding `Cc1c(C(=O)C(=O)NC(C)(C)c2cccnc2)c(C)n(C)c1C(=O)Nc1ccc(F)c(C#N)c1` [Compound 92, N-(3-cyano-4-fluoro-phenyl)-1,3,5-trimethyl-4-[2-[[1-methyl-1-(3-pyridyl)ethyl]amino]-2-oxo-acetyl]pyrrole-2-carboxamide], where the note is “Hepatitis B virus”, the EC50 lay within 1 to 10 nM.

On to `Cc1c(C(=O)C(=O)NC(C)(C)c2ccncn2)c(C)n(C)c1C(=O)Nc1ccc(F)c(C(F)(F)F)c1` [Compound 153, N-[4-fluoro-3-(trifluoromethyl)phenyl]-1,3,5-trimethyl-4-[2-[(1-methyl-1-pyrimidin-4-yl-ethyl)amino]-2-oxo-acetyl]pyrrole-2-carboxamide], for which the EC50 (Hepatitis B virus) was below 1 nM.

Turning to `C#CCNC(=O)C(=O)c1c(Cl)c(C(=O)Nc2ccc(F)c(C#N)c2)n(C)c1Br` [Compound 16, 5-bromo-3-chloro-N-(3-cyano-4-fluoro-phenyl)-1-methyl-4-[2-oxo-2-(prop-2-ynylamino)acetyl]pyrrole-2-carboxamide], the EC50 (Hepatitis B virus) was 10 to 100 nM.

As to `Cc1c(C(=O)C(=O)NC2(c3c[nH]cn3)COC2)c(C)n(C)c1C(=O)Nc1ccc(F)c(C#N)c1` [Compound 157, N-(3-cyano-4-fluoro-phenyl)-4-[2-[[3-(1H-imidazol-4-yl)oxetan-3-yl]amino]-2-oxo-acetyl]-1,3,5-trimethyl-pyrrole-2-carboxamide], where the note is “Hepatitis B virus”, the EC50 fell in the range of 1 to 10 nM.

On to `Cc1c(C(=O)C(=O)NC(C)(C)c2cncnc2)c(C)n(C)c1C(=O)Nc1ccc(F)c(C#N)c1` [Compound 144, N-(3-cyano-4-fluoro-phenyl)-1,3,5-trimethyl-4-[2-[(1-methyl-1-pyrimidin-5-yl-ethyl)amino]-2-oxo-acetyl]pyrrole-2-carboxamide], for which, where the note is “Hepatitis B virus”, the EC50 fell in the range of 1 to 10 nM.

`C#CC1(NC(=O)C(=O)c2c(C)c(C(=O)Nc3ccc(F)c(C(F)(F)F)c3)n(C)c2C)CC(F)(F)C1` [Compound 37, 4-[2-[(1-ethynyl-3,3-difluoro-cyclobutyl)amino]-2-oxo-acetyl]-N-[4-fluoro-3-(trifluoromethyl)phenyl]-1,3,5-trimethyl-pyrrole-2-carboxamide]: for the setting “Hepatitis B virus”, the EC50 was below 1 nM.

For `C#C[C@@H](COC)NC(=O)C(=O)c1c(C)c(C(=O)Nc2ccc(F)c(C#N)c2)n(C)c1C` [Compound 28a, N-(3-cyano-4-fluoro-phenyl)-4-[2-[[(1S)-1-(methoxymethyl)prop-2-ynyl]amino]-2-oxo-acetyl]-1,3,5-trimethyl-pyrrole-2-carboxamide], under “Hepatitis B virus”, the EC50 was 1 to 10 nM.

In the case of `Cc1c(C(=O)C(=O)NC(C)(C)c2cncnc2)c(C)n(C)c1C(=O)Nc1ccc(F)c(C(F)(F)F)c1` [Compound 148, N-[4-fluoro-3-(trifluoromethyl)phenyl]-1,3,5-trimethyl-4-[2-[(1-methyl-1-pyrimidin-5-yl-ethyl)amino]-2-oxo-acetyl]pyrrole-2-carboxamide], the EC50 (Hepatitis B virus) is 1 to 10 nM.

Turning to `C#C[C@H](CCO)NC(=O)C(=O)c1c(C)c(C(=O)Nc2ccc(F)c(C#N)c2)n(C)c1C` [Compound 61b, N-(3-cyano-4-fluoro-phenyl)-1,3,5-trimethyl-4-[2-oxo-2-[[(1S)-1-(2-hydroxyethyl)prop-2-ynyl]amino]acetyl]pyrrole-2-carboxamide], the EC50 (Hepatitis B virus) was 1 to 10 nM.

(Values after US12599582B2, “Pyrrole compounds” (ALIGOS THERAPEUTICS, INC., priority 2019, dated 2026).)
